Earlier results on twelve compounds are cited in patent publication US20190374552A1, “MULTIFUNCTIONAL FORMULATIONS AND METHODS TO CONTROL DERMATITIS AND PRURITUS” (priority 2016, published 2019).

“Also recorded” adds a separate entry of the source.

The target in one series is human TRPM8 (hTRPM8) (Homo sapiens, UniProt Q7Z2W7).
The next series has as its target T1, hTRPV2 (Homo sapiens, UniProt Q9Y5S1).
T1 sequence (Q9Y5S1 1-764): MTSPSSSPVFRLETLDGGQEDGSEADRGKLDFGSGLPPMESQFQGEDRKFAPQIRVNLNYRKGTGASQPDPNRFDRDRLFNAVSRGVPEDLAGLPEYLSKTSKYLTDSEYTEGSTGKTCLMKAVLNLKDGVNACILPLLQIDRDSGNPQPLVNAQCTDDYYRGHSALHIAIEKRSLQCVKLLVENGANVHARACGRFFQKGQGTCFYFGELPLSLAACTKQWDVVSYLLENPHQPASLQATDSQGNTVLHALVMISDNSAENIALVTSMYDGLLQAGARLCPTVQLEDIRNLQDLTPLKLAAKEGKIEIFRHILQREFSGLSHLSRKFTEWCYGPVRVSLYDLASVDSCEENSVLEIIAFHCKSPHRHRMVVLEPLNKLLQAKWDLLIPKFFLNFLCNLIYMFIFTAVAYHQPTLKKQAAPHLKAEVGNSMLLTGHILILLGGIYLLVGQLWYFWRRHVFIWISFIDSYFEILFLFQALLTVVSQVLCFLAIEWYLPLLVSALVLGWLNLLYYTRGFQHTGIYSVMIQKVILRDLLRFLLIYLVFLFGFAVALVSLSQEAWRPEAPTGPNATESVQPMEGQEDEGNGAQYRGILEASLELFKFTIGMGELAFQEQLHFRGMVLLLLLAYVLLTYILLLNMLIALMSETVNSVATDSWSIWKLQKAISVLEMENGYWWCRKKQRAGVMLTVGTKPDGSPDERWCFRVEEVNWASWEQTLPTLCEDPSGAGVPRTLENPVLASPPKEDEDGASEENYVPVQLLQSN

Series [1] has as its target T2, TRPA1 (Homo sapiens, UniProt O75762).
Target sequence in this assay (O75762 whole entry): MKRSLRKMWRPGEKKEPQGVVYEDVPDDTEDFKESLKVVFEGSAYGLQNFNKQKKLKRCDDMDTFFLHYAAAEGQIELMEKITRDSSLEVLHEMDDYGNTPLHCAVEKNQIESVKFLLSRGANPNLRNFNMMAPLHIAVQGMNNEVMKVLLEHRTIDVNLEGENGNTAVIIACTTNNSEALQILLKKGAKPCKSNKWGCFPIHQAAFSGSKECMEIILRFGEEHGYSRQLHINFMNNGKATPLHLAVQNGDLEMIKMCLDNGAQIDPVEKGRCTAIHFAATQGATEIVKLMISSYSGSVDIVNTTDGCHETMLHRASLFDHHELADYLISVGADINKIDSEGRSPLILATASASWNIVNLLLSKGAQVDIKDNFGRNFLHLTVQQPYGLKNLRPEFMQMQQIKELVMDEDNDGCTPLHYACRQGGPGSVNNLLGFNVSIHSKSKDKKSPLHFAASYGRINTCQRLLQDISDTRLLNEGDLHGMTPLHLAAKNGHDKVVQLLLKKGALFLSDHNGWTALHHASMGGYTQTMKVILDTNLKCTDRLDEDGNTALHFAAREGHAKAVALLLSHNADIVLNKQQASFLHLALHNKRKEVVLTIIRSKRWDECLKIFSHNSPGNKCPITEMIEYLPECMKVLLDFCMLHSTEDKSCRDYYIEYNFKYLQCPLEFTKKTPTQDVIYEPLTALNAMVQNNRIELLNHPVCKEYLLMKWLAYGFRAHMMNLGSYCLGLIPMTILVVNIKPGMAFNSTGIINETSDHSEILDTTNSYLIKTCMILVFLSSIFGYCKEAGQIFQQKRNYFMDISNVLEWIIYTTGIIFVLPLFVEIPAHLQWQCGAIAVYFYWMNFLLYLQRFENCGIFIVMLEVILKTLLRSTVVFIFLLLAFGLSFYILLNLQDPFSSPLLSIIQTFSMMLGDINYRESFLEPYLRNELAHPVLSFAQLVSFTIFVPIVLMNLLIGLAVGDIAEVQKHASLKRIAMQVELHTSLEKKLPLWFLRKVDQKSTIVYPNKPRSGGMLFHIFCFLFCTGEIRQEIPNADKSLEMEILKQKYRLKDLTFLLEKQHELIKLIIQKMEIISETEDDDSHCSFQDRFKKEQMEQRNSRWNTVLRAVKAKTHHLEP
Series [2] addresses T3, TRPV1 (Homo sapiens, UniProt Q8NER1).
Target sequence in this assay (Q8NER1 whole entry): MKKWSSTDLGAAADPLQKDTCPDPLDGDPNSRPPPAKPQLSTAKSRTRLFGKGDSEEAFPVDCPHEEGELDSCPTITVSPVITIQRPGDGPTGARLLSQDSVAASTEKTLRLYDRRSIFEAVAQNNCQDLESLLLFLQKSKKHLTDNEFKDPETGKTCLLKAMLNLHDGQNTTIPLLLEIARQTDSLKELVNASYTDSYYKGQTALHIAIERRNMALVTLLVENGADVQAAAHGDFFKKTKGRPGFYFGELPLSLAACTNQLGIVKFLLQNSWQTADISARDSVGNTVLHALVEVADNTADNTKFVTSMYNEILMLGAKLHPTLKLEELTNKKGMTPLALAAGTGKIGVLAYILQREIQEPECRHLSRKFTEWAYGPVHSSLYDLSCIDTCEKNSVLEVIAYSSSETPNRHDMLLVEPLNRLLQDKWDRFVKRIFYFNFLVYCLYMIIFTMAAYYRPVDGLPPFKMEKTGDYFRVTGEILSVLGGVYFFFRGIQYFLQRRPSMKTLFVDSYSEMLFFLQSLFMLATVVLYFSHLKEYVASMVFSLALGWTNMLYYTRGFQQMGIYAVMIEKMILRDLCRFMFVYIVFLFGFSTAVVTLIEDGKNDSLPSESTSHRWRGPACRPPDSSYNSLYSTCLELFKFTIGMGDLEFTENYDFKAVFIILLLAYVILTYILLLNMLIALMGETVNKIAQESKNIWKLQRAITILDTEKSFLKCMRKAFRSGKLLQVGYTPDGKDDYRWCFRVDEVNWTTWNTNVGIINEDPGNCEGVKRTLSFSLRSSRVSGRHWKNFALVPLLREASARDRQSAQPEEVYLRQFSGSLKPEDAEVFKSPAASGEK
Series [3] addresses T2, TRPA1. The conditions noted are these: for inhibition of hTRPA1 activation by menthol and allyl isothiocyanate: compound at 1 mM, menthol 1 mM, allyl isothiocyanate 10 uM.
Target sequence in this assay (O75762 whole entry): as the sequence (O75762 whole entry) above
Series [4] deals with T2, TRPA1. The source holds these as a separate data set.
Target sequence in this assay (O75762 whole entry, species assumed): as the sequence (O75762 whole entry) above
Series [5] deals with T3, TRPV1. This is another data set of the same source.
Target sequence in this assay (Q8NER1 whole entry, species assumed): as the sequence (Q8NER1 whole entry) above
The next series concerns histaminergic itch. The conditions noted are these: topical application, human trials.
In a further series the test system is scratching behavior ACD. The conditions noted are these: mice exposed to haptens oxazolone and urushiol.
Series [6] has as its target TRPV1 (Rattus norvegicus, UniProt O35433). As to conditions: compared with docosahexaenoic acid.
A further series concerns leukocyte migration. The conditions noted are these: induced by injection of carrageenan.
Series [7] concerns TRPV1.
The subject of another series is pain and itch responses. As to conditions: mice.
Series [8] concerns the target T2, TRPA1. The source holds these as a separate data set.
Target sequence in this assay (O75762 whole entry, species assumed): as the sequence (O75762 whole entry) above
Series [9] has as its target T3, TRPV1. This is another data set of the same source.
Target sequence in this assay (Q8NER1 whole entry, species assumed): as the sequence (Q8NER1 whole entry) above
A further series deals with TRPM8 (Homo sapiens, UniProt Q7Z2W7).
Sequence of TRPM8 (Q7Z2W7 whole entry, species assumed): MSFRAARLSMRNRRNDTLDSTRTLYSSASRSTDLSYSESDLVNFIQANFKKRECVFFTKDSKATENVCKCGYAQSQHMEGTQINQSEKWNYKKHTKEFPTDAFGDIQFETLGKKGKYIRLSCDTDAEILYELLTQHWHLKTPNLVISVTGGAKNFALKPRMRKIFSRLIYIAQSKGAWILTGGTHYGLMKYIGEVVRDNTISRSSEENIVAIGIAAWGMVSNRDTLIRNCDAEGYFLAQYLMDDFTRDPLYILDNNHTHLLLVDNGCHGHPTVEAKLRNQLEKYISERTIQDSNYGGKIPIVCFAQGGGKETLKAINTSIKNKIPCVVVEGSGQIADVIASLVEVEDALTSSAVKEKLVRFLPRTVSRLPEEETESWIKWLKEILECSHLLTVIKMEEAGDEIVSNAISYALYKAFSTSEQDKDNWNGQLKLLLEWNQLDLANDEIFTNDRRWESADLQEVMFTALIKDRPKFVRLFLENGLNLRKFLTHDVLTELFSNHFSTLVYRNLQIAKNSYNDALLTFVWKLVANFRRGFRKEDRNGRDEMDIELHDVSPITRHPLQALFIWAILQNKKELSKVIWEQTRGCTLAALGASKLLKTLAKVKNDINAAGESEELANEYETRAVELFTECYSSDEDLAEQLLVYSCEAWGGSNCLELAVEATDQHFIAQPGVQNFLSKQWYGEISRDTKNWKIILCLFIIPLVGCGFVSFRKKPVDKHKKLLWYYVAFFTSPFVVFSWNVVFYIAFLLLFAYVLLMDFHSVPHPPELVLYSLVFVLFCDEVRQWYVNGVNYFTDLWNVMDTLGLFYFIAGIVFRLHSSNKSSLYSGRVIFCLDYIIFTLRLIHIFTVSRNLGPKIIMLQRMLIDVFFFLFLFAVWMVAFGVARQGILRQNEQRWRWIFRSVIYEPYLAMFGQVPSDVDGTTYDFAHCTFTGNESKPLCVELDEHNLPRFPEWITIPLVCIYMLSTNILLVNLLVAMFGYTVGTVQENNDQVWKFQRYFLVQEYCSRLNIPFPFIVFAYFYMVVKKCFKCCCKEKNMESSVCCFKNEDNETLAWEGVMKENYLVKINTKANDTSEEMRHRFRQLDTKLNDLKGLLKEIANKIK

Sequence of human TRPM8 (hTRPM8) (Q7Z2W7 whole entry): as the sequence (Q7Z2W7 whole entry, species assumed) above
Sequence of TRPV1 (Rattus norvegicus, UniProt O35433) (O35433 whole entry): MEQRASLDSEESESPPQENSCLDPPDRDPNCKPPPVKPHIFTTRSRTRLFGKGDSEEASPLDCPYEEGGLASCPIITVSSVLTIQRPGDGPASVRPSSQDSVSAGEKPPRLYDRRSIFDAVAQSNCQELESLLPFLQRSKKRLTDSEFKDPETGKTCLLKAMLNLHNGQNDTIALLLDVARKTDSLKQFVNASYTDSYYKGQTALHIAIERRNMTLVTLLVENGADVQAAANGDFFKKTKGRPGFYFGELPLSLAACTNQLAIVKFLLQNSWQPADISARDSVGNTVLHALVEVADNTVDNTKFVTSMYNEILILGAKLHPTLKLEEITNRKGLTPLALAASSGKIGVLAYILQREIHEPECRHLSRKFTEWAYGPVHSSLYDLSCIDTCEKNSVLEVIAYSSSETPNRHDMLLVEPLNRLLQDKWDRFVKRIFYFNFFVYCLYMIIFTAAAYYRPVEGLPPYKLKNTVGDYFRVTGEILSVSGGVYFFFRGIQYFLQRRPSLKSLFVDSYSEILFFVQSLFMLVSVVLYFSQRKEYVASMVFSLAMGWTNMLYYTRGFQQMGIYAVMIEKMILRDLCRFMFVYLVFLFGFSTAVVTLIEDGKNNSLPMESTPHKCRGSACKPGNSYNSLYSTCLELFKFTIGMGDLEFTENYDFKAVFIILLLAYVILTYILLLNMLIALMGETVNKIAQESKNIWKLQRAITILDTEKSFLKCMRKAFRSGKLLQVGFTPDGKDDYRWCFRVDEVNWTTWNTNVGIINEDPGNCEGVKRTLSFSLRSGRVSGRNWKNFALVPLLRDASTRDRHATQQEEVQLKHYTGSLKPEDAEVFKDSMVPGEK

`CC12CCC(CC1)C(C)(C)O2` [1,8-cineole]: the “release of IL-I β, IL-4, IL-5 and TNF-a” value in the series on stimulated lymphocytes is listed as “decreased”. Besides, the “activation of hTRPM8” value on human TRPM8 (hTRPM8) was “activates”. Moreover, the “activation of hTRPV2” value on hTRPV2 was “did not activate”. Moreover, at TRPA1 [1], the “activation of hTRPA1” value was “did not activate”. Besides, at TRPV1 [2], the “activation of hTRPV1” value is “did not activate”.

Regarding `CC1(C)[C@@H]2CC[C@@]1(C)[C@](C)(O)C2` [2-methylosoborneol], the IC50 at TRPA1 [3] (TRPA1 activation by 20 uM AITC, read-out: IC-50 concentration, inactivation of TRPA1 activation) is 120 µM. The “inhibition of hTRPA1 activation by menthol and allyl isothiocyanate” value (“inhibition of hTRPA1 activation” for short) at TRPA1 [3] is reported as “completely inhibited”. In addition, the “activation of hTRPA1” value at TRPA1 [1] is listed as “did not activate”.

`O=C(CCCCC1CCSS1)NCCC(=O)NC(Cc1cnc[nH]1)C(=O)O` (stereo not shown) [ADM 09]: the “block of TRPA1 agonist AITC” value at TRPA1 [4] is given as “blocked”. For the same compound, the “block of TRPV1 agonist capsaicin” value at TRPV1 [5] is “blocked”.

For the compound `CC1CCC(C(C)C)C(O)C1` (stereo not shown) [Example 1-menthol, 1-menthol], the “activation of hTRPM8” value on human TRPM8 (hTRPM8) is recorded as “activation”. In the series on histaminergic itch, the “effect on histaminergic / experimentally induced itch” value was “significant inhibitory effects; also recorded: significant and pronounced anti-pruritic effect; also recorded: relieved”. The “activation of hTRPA1” value at TRPA1 [1] is “activated”.

In the case of `CC(C)c1ccc(NC(=O)Cn2cnc3c2c(=O)n(C)c(=O)n3C)cc1` [HC-030031], the scratching behavior result with scratching behavior ACD is “inhibition of scratching”.

For `CC/C=C\C/C=C\C/C=C\CCCCCCCC(=O)O` [a-linolenic acid], on TRPV1 [6], the TRPV1 inhibition entry is “markedly more effective inhibitors”.

As for `CC1(C)C2CCC1(C)C(O)C2` (stereo not shown) [borneol], the leukocyte migration entry in the series on leukocyte migration is on record as “reduce”. In addition, the “inhibition of TNF-a and IL-6” value with TNF-a and IL-6 is listed as “inhibits”. In addition, the “inhibition of hTRPA1 activation” value at TRPA1 [3] is reported as “completely inhibited”. Besides, at TRPA1 [1], the “activation of hTRPA1” value is listed as “did not activate”.

Regarding `CC12CCC(CC1=O)C2(C)C` (stereo not shown) [camphor], the “activation of hTRPA1” value on TRPA1 [1] is “did not activate”.

Consider `CC12CCC(C1)C(C)(C)C2O` (stereo not shown) [fenchyl alcohol], for which the “inhibition of hTRPA1 activation” value at TRPA1 [3] was “completely inhibited”. In addition, the “activation of hTRPA1” value on TRPA1 [1] is “did not activate”.

Turning to `O=C1CC2CC[C@H]1C2` [norcamphor], the “activation of hTRPA1” value on TRPA1 [1] is listed as “did not activate”.

As to `CCCCCCCC/C=C\CCCCCCCC(=O)O` [oleic acid], the TRPV1 activity entry in the series on TRPV1 [7] is given as “inhibited”. Besides, the “pain and itch responses” value in the series with pain and itch responses is reported as “inhibited”.

Consider Hyaluronan [HA], for which the TRPA1 channel function result on TRPA1 [8] is reported as “not affected”. Besides, the TRPV1 channel activity result on TRPV1 [9] is “inhibits”. Moreover, on TRPM8, the TRPM8 channel function result is reported as “not affected”.
